Consider 15 compounds from BindingDB's records for doi:10.1016/j.bmcl.2005.08.100 (the State University of New Jersey, 2022).

Bounds are passed on as bounds.

A word on the IC50: it is the concentration that inhibits the measured activity by half. Usually Kd stands for the free concentration of one partner at which half of the binding sites on the other are occupied at equilibrium, for simple one-to-one binding.

Assay [1] deals with T1, Replicase polyprotein 1ab (Severe acute respiratory syndrome coronavirus 2, UniProt P0DTD1). Put plainly: Inhibition of SARS-CoV-2 papain-like protease.
Assay [2] concerns the target T1, Replicase polyprotein 1ab. Nature of the assay: Inhibition of SARS-CoV-2 papain-like protease using fluorescent substrate preincubated for 1 hr by fluorescence based assay.
Assay [3] addresses T1, Replicase polyprotein 1ab. Nature of the assay: Inhibition of SARS-CoV-2 papain-like protease assessed as viral protease-mediated deubiquitination using ubiquitinated substrate incubated for 16 to 18 hrs by fluorescence based assay.
In assay [4] the target is T1, Replicase polyprotein 1ab. Nature of the assay: Inhibition of TAP-tagged SARS-CoV-2 papain-like protease nsp123.
Assay [5] has as its target T1, Replicase polyprotein 1ab. Put plainly: Inhibition of SARS-CoV-2 papain-like protease-mediated de-ISGylation.
Assay [6] has as its target T1, Replicase polyprotein 1ab. Put plainly: Inhibition of TAP-tagged SARS-CoV-2 papain-like protease nsp23.
Assay [7] has as its target T1, Replicase polyprotein 1ab. Put plainly: Binding affinity to CM5 chip immobilized full-length wild-type SARS-CoV-2 papain-like protease (1564 to 1878 residues) expressed in Escherichia coli BL21 (DE3) assessed as dissociation constant incubated for 90 secs by SPR analysis.
Assay [8] deals with T1, Replicase polyprotein 1ab. Nature of the assay: Inhibition of N-terminal 3xFlag-His6-tagged SARS-CoV-2 papain-like protease nsp3 (1564 to 1878 residues) expressed in baculovirus infected Sf9 insect cells using Pro3 as substrate by fluorescence based assay.
The target in assay [9] is T1, Replicase polyprotein 1ab. Nature of the assay: Inhibition of C-terminal His-tagged SARS-CoV-2 BetaCoV/Wuhan/WIV04/2019 papain-like protease (1564 to 1876 residues) expressed in Escherichia coli BL21 (DE3) using Dabcyl-FTLRGG/APTKV as substrate preincubated for 1 hr followed by substrate addition measured after 3 hrs by FRET assay.
Assay [10] has as its target T1, Replicase polyprotein 1ab. Nature of the assay: Inhibition of recombinant SARS-CoV-2 papain-like protease using Z-Arg-Leu-Arg-Gly-Gly-AMC as substrate by enzymatic assay.
Assay [11] concerns the target T1, Replicase polyprotein 1ab. Put plainly: Inhibition of recombinant SARS-CoV-2 main protease using ATLQAIAS as substrate preincubated for 15 mins by enzymatic assay.
Assay [12] deals with T1, Replicase polyprotein 1ab. Put plainly: Inhibition of SARS-CoV-2 papain-like protease expressed in Escherichia coli BL21 (DE3) using Z-LRGG-AMC/Z-RLRGG-AMC as substrate preincubated for 30 mins by enzymatic assay.
The target in assay [13] is T1, Replicase polyprotein 1ab. Put plainly: Inhibition of SARS-CoV-2 papain-like protease using ISG15-Rh as substrate.
Assay [14] has as its target T1, Replicase polyprotein 1ab. Put plainly: Binding affinity to biotin-tagged SARS-CoV-2 papain-like protease expressed in Escherichia coli BL21 (DE3) assessed as dissociation constant incubated for 3 mins by BLI assay.
Assay [15] deals with T1, Replicase polyprotein 1ab. Put plainly: Inhibition of 6xHis-tagged SARS-CoV-2 papain-like protease expressed in Escherichia coli BL21 (DE3) using ISG15-FITC as substrate incubated for 30 mins by fluorescence polarization assay. A general note: Fluorescence polarisation rises when a labelled molecule tumbles more slowly, as on binding a larger partner.
The target in assay [16] is T1, Replicase polyprotein 1ab. Nature of the assay: Inhibition of SARS-CoV-2 papain-like protease using RLRGG-AMC as substrate.

Compound `O=C1c2ccccc2C(=O)c2oc(-c3ccccc3)nc21` registered an IC50 in [1] of 0.56 µM.

`O=C1c2c(O)cccc2[C@@H]([C@@H]2O[C@H](CO)[C@@H](O)[C@H](O)[C@H]2O)c2cc(CO)cc(O)c21`: the figures for the IC50 in [2] and in assay [3] were 16.1 µM and 17.5 µM, respectively.

`Nc1nc2nc[nH]c2c(=S)[nH]1`: the concentration for half-maximal inhibition (IC50) in assay [4] is 0.5 µM; in [5], 0.1 µM; in assay [6], 1 µM.

In the case of `C[C@H](c1cccc2ccccc12)N1CCC(C(=O)NCc2cc(F)cc(NC(=O)N3CCN(C)CC3)c2)CC1`, in assay [7], the equilibrium dissociation constant (Kd) came out at 2.6 µM.

Turning to `O=C1c2ccccc2-c2nc3nnnn3nc21`, in [8], it took 0.26 µM to reach half-maximal inhibition (IC50).

In assay [9], `C[C@H](c1ccccc1Cl)N(C)Cc1cc(O)ccc1Cl` returned an IC50 of 6.67 µM.

For `CN(Cc1cn(C2C3=C(OC2(C)C)c2ccccc2C(=O)C3=O)nn1)C1=CC(=O)c2ccccc2C1=O` (stereo unspecified), in assay [10], the IC50 turned out to be 2.2 µM.

On to `CN(Cc1cn(C2C3=C(OC2(C)C)c2ccccc2C(=O)C3=O)nn1)C1=C(Br)C(=O)c2ccccc2C1=O` (stereo unspecified), for which the IC50 in assay [10] turned out to be 3.1 µM; in [11], 66 µM.

As to `C[C@@H](NC(=O)c1ccccc1CCC(=O)NNC(=O)/C(C#N)=C/C1CC1)c1cccc2ccccc12`, the IC50 in [12] was > 200 µM.

For `OCCc1ccc(O)cc1` [4-(2-Hydroxy-ethyl)-phenol], the 50% inhibitory concentration (IC50) in assay [13] stood at 6.68 µM.

For `O=Cc1ccc(O)cc1` [4-hydroxybenzaldehyde], the half-inhibitory concentration (IC50) in [13] is 3.99 µM.

`Cc1ccc(NC2=CC(=O)c3sc(C)nc3C2=O)cc1` [5-(N-(4-Methylphenyl)amino)-2-methyl-4,7-dioxobenzothiazole] gave a half-maximal inhibitory concentration (IC50) in [8] of 0.39 µM.

For the compound `Oc1c(Cl)cc(Cl)c2cccnc12` [AS-229], in assay [14], the Kd came to 4.6 µM. The same compound came in with an IC50 in assay [15] of 7.24 µM.

`O=C1c2c(O)cccc2[C@H]([C@@H]2O[C@H](CO)[C@@H](O)[C@H](O)[C@H]2O)c2cc(CO)cc(O)c21` [CHEBI:2991]: the IC50 was 13.2 µM in [2] and 15.7 µM in [3].

In turn, `Nc1ccc2cc3ccc(N)cc3nc2c1` [acridine-3,6-diamine] gave a concentration for half-maximal inhibition (IC50) in assay [16] of 1.66 µM.
